Source: patent publication US10093656B2, “Fused-ring or tricyclic aryl pyrimidine compound used as kinase inhibitor” (NANJING SANHOME PHARMACEUTICAL CO., LTD, priority 2015, dated 2018)

What was measured:
EGFR d746-750/T790M = molecular target: T1, EGFR d746-750/T790M (Homo sapiens, UniProt P00533, DEL746-750/T790M); assay: EGFR d746-750/T790M enzyme HTRF inhibition assay; type: biochemical; details: 40 μM ATP
T1 construct: purchased Carna Biosciences (Japan)
Experimental: (§1) Enzyme: EGFR wild type, EGFR T790M/L858R, EGFR T790M and INSR were purchased from Life technology (Madison, Wis.), EGFR d746-750/T790M was purchased from Carna Biosciences (Japan).
(§2) HTRF Kit was purchased from Cis-Bio International which contained the Eu-labeled TK1 antibody, XL665 and biotin-labeled TK1 polypeptide substrates.
(§3) Detecting instrument: Envision (PerkinElmer).
(§4) The test compound was diluted 3-fold to obtain 10 doses of which the final concentration was from 300 nM to 0.015 nM.
EGFR d746-750/T790M Enzyme Reaction Mixture System:
0.025 nM EGFR d746-750/T790M, 1 μM biotin-TK1 peptide, 40 μM ATP enzyme buffer, a total of which was 10 μL. The reaction plate was white Proxiplate 384-Plus plate (PerkinElmer) and the mixture was reacted at 23° C. for 60 minutes.
(§5) Reaction Detection: 10 μL of detection reagent containing Antibody 2 nM and XL665 62.5 nM was added, and the reagent was incubated at 23° C. for 60 minutes. The plates were read by Envision.
(§6) The reading is converted to the suppression rate (%) by the following formula […]/(Max-Min)*100%. IC50 Data was measured by four-parameter curve fitting (Model 205 in XLFITS, IDBS).

[1] = system: NCI-H1975 cells EGFR L858R/T790M; assay: NCI-H1975 cell viability assay (Cell Titer-Glo, 6 days); type: cell-based; details: Homo sapiens, 144 h
Experimental: (§7) RPMI1640, fetal bovine serum, penicillin/streptomycin solution were purchased from Life Technology (Madison, Wis.). Cell Titer-Glo luminescent cell viability reagents were purchased from Promega (Madison, Wis.). A431 cell line and NCI-H1975 cell line were purchased from European Collection of Cell Cultures (ECACC). Plate Reader Instrument: Envision (PerkinElmer).
(§8) 384-Well plates, 300 of A431 cells and NCI-H1975 cells were inoculated per well, a volume of which was 45 μL. And the plates were incubated overnight in a CO2 incubator at 37° C. The test compound was diluted 3-fold to obtain 10 dose concentrations, the final concentrations of which were from 10 μM to 0.508 nM, two wells. The middle plates were filled with 49 μL of medium per well. 1 μL of compound in the gradient dilution compound plates was transferred to the middle plates and mixed well. And then 5 μL liquid in the middle plates was taken to the cell plates. The cells were incubated in a CO2 incubator for 6 days. After 6 days, 25 μL of detection reagents was added. And then the mixture was incubated at room temperature for 10 minutes and the plates were read by Envision.
(§9) The reading is converted to the suppression rate by the following formula (%) (Max-Sample)/(Max-Min)*100%. IC50 Data was measured by Four-parameter curve fitting (Model 205 in XLFIT5, IDBS).

EGFR wild type = molecular target: T2, EGFR wild type (Homo sapiens, UniProt P00533); assay: Wild-type EGFR enzyme HTRF inhibition assay; type: biochemical; details: 25 μM ATP, read-out: EGFR WT IC50
T2 construct: purchased Life technology (Madison, Wis.)
Experimental: as §1, §2, §3, §4
Wild-Type EGFR Enzyme Reaction Mixture System:
0.05 nM Wild-type EGFR, 1 μM biotin-TK1 peptide, 25 μM ATP enzyme buffer, a total of which was 10 μL. The reaction plate was white Proxiplate 384-Plus plate (PerkinElmer) and the mixture was reacted at 23° C. for 60 minutes.
as §5, §6

EGFR T790M/L858R = molecular target: T3, EGFR T790M/L858R (Homo sapiens, UniProt P00533, L858R/T790M); assay: EGFR T790M/L858R enzyme HTRF inhibition assay; type: biochemical; details: 20 μM ATP, read-out: EGFR L858R/T79M IC50
T3 construct: purchased Life technology (Madison, Wis.)
Experimental: as §1, §2, §3, §4
EGFR T790M/L858R Enzyme Reaction Mixture System:
0.04 nM EGFR T790M/L858R, 1 μM biotin-TK1 peptide, 20 μM ATP enzyme buffer, a total of which was 10 μL. The reaction plate was white Proxiplate 384-Plus plate (PerkinElmer) and the mixture was reacted at 23° C. for 60 minutes.
as §5, §6

A431 cells EGFR WT = assay: A431 cell viability assay (Cell Titer-Glo, 6 days); type: cell-based, human; details: for IC50: Homo sapiens, A-431, 144 h, A431 cells, 6 days; for A431:NCI-H1975 (ratio): ratio of cell IC50 A431 to NCI-H1975
Experimental: as §7, §8, §9

T2 sequence (P00533 25-1210): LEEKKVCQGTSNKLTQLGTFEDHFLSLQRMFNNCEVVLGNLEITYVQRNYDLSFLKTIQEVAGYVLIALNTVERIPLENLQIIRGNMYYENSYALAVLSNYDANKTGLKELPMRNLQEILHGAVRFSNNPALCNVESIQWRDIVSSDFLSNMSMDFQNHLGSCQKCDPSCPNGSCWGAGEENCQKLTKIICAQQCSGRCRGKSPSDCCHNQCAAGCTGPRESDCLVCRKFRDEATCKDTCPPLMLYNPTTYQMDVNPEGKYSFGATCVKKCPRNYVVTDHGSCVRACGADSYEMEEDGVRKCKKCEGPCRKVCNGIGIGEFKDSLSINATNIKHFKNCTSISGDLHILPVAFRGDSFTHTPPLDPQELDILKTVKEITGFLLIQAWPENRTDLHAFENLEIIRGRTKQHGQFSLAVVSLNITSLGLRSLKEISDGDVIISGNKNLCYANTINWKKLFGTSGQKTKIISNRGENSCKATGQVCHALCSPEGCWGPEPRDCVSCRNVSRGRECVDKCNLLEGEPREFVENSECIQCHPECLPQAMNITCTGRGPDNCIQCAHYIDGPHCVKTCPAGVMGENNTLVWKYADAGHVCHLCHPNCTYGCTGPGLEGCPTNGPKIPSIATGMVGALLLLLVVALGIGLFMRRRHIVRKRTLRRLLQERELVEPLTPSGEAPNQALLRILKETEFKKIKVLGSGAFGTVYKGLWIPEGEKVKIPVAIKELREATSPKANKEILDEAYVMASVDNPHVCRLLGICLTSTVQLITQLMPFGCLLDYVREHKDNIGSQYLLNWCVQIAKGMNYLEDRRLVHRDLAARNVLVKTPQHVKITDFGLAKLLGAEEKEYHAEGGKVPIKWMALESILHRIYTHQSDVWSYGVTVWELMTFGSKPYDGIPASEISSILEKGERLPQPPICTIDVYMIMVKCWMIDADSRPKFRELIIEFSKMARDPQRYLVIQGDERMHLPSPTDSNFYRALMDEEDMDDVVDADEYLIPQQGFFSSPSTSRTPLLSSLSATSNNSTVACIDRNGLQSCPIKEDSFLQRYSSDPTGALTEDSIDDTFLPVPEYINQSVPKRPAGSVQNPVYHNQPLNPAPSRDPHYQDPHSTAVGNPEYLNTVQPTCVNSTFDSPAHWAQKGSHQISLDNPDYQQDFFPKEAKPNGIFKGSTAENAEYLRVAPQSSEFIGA
T1 sequence (P00533 with tags, fused parts or gaps DEL746-750/T790M limits assumed): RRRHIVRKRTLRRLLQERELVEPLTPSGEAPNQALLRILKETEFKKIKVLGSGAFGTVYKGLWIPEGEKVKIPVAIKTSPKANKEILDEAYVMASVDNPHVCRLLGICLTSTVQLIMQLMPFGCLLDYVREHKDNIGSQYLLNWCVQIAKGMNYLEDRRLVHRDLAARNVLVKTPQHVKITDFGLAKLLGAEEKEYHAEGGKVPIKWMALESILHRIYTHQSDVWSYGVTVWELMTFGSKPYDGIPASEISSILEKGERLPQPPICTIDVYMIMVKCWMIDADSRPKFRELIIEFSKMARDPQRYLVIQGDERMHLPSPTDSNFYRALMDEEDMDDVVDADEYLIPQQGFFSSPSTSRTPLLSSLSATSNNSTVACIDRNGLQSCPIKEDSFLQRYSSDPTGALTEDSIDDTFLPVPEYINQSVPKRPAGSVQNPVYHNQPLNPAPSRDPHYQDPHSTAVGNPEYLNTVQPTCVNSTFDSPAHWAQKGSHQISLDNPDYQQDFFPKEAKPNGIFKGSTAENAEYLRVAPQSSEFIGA
T3 sequence (P00533 25-1210 T790M/L858R): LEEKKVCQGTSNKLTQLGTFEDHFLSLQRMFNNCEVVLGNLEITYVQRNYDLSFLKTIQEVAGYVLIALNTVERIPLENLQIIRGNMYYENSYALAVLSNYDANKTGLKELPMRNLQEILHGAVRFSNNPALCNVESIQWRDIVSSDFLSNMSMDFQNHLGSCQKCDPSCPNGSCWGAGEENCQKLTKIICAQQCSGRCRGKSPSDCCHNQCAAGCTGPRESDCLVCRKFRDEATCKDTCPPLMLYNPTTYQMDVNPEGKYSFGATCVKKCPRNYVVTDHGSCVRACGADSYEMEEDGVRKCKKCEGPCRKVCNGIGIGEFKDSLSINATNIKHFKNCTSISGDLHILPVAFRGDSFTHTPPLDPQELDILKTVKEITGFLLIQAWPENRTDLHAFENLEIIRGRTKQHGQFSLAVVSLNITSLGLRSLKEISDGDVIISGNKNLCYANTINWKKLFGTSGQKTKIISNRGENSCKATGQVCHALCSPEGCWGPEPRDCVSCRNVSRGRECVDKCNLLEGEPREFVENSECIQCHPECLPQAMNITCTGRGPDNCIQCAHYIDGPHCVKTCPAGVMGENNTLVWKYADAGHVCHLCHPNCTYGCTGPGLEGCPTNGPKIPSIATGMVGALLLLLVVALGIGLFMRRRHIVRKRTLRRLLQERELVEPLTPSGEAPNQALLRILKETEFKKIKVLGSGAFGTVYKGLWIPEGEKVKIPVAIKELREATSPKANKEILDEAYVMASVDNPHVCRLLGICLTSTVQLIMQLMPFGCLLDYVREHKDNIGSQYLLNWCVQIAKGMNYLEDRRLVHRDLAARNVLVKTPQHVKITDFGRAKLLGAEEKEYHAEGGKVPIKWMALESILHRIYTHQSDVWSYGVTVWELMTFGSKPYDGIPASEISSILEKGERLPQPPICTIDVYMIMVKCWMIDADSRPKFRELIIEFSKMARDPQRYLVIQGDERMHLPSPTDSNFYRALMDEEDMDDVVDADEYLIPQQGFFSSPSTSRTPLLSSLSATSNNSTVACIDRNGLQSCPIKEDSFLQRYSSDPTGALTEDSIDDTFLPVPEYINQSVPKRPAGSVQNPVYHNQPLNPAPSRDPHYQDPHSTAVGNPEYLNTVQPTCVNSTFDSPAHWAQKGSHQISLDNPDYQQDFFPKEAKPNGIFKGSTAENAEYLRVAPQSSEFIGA

## C=CC(=O)Nc1cc(Nc2nccc(-c3c4n(c5ccccc35)CCC4)n2)c(OC)cc1N1CCC(N(C)C)C1 (stereo not drawn) [Embodiment 6, N-(5-((4-(2,3-Dihydro-1H-pyrrolo[1,2-a]indol-9-yl)pyrimidin-2-yl)amino)-2-(3-(dimethylamino)pyrrolidin-1-yl)-4-methoxyphenyl)acrylamide]
EGFR d746-750/T790M
  IC50: 3.29 nM
[1]
  IC50: 4330 nM
EGFR wild type
  IC50: 20.3 nM
EGFR T790M/L858R
  IC50: 3.07 nM
A431 cells EGFR WT
  IC50: > 10000 nM
  A431:NCI-H1975 (ratio): >2.1

## C=CC(=O)Nc1cc(Nc2nccc(-c3c4n(c5ccccc35)CCOC4)n2)c(OC)cc1N(C)CCN(CC)CC [Embodiment 16, N-(2-((2-(Diethylamino)ethyl)(methyl)amino)-5-((4-(3,4-dihydro-1H-[1,4]oxazino[4,3-a]indol-10-yl)pyrimidin-2-yl)amino)-4-methoxyphenyl)acrylamide]
EGFR d746-750/T790M
  IC50: 0.33 nM
[1]
  IC50: 17 nM
EGFR wild type
  IC50: 4 nM
EGFR T790M/L858R
  IC50: 0.29 nM
A431 cells EGFR WT
  IC50: 1060 nM
  A431:NCI-H1975 (ratio): 63

## C=CC(=O)Nc1cc(Nc2nccc(-c3c4n(c5ccccc35)CCC4)n2)c(OC)cc1N(C)CCN1CCCC1 [Embodiment 5]
EGFR d746-750/T790M
  IC50: 0.97 nM
[1]
  IC50: 19 nM
EGFR wild type
  IC50: 7.28 nM
EGFR T790M/L858R
  IC50: 0.93 nM
A431 cells EGFR WT
  IC50: 2670 nM
  A431:NCI-H1975 (ratio): 140.6

## C=CC(=O)Nc1cc(Nc2nccc(-c3c4n(c5ccccc35)CC(F)(F)CC4)n2)c(OC)cc1N(C)CCN(C)C [Embodiment 14, N-(5-((4-(7,7-Difluoro-8,9-dihydro-6H-pyrido[1,2-a]indol-10-yl)pyrimidin-2-yl)amino)-2-((2-(dimethylamino)ethyl)(methyl)amino)-4-methoxyphenyl)acrylamide]
EGFR d746-750/T790M
  IC50: 0.33 nM
[1]
  IC50: 13 nM
EGFR wild type
  IC50: 0.6 nM
EGFR T790M/L858R
  IC50: 0.27 nM
A431 cells EGFR WT
  IC50: 134 nM
  A431:NCI-H1975 (ratio): 10.3

## C=CC(=O)Nc1cc(Nc2nccc(-c3c4n(c5ccccc35)CCC4)n2)c(OC)cc1C#CCN(C)C [Embodiment 8, N-(5-((4-(2,3-Dihydro-1H-pyrrolo[1,2-a]indol-9-yl)pyrimidin-2-yl)amino)-2-(3-(dimethylamino)prop-1-yn-1-yl)-4-methoxyphenyl)acrylamide]
EGFR d746-750/T790M
  IC50: 0.64 nM
[1]
  IC50: 474 nM
EGFR wild type
  IC50: 5.22 nM
EGFR T790M/L858R
  IC50: 0.91 nM
A431 cells EGFR WT
  IC50: 5460 nM
  A431:NCI-H1975 (ratio): 11.5

## C=CC(=O)Nc1cc(Nc2nccc(-c3c4n(c5ccccc35)CCCC4)n2)c(OC)cc1N(C)CCN(C)C [Embodiment 15, N-(2-((2-(Dimethylamino)ethyl)(methyl)amino)-4-methoxy-5-((4-(6,7,8,9-tetrahydropyrido[1,2-a]indol-10-yl)pyrimidin-2-yl)amino)phenyl)acrylamide]
EGFR d746-750/T790M
  IC50: 0.37 nM
[1]
  IC50: 15 nM
EGFR wild type
  IC50: 1.03 nM
EGFR T790M/L858R
  IC50: 0.36 nM
A431 cells EGFR WT
  IC50: 230 nM
  A431:NCI-H1975 (ratio): 15.3

## C=CC(=O)Nc1cc(Nc2nccc(-c3c4n(c5ccccc35)CCOC4)n2)c(OC)cc1N(C)CCNC(C)(C)C [Embodiment 24, N-(2-((2-(tert-Butylamino)ethyl)(methyl)amino)-5-((4-(3,4-dihydro-1H-[1,4]oxazino[4,3-a]indol-10-yl)pyrimidin-2-yl)amino)-4-methoxyphenyl)acrylamide]
EGFR d746-750/T790M
  IC50: 1.3 nM
[1]
  IC50: 172 nM
EGFR wild type
  IC50: 36.4 nM
EGFR T790M/L858R
  IC50: 1.9 nM
A431 cells EGFR WT
  IC50: 2660 nM
  A431:NCI-H1975 (ratio): 15

## C=CC(=O)Nc1cc(Nc2nccc(-c3c4n(c5ccccc35)CCOC4)n2)c(OC)cc1N(C)CCN1CCC1 [Embodiment 26, N-(2-((2-(Azetidin-1-yl)ethyl)(methyl)amino)-5-((4-(3,4-dihydro-1H-[1,4]oxazino[4,3-a]indol-10-yl)pyrimidin-2-yl)amino)-4-methoxyphenyl)acrylamide]
[1]
  IC50: 102 nM
A431 cells EGFR WT
  IC50: 2210 nM
  A431:NCI-H1975 (ratio): 22

## C=CC(=O)Nc1cc(Nc2nccc(-c3c4n(c5ccccc35)CCOC4)n2)c(OC)cc1N(C)CCNC(C)C [Embodiment 23, N-(5-((4-(3,4-Dihydro-1H-[1,4]oxazino[4,3-a]indol-10-yl)pyrimidin-2-yl)amino)-2-((2-(isopropylamino)ethyl)(methyl)amino)-4-methoxyphenyl)acrylamide]
[1]
  IC50: 63 nM
A431 cells EGFR WT
  IC50: 1570 nM
  A431:NCI-H1975 (ratio): 25

## C=CC(=O)Nc1cc(Nc2ncc(F)c(-c3c4n(c5ncccc35)CCOC4)n2)c(OC)cc1N(C)CCN(C)C [Embodiment 39, N-(5-((4-(8,9-Dihydro-6H-pyrido[2,3]pyrrolo[4,5-α][1,4]oxazin-5-yl)-5-fluoropyrimidin-2-yl)amino)-2-((2-(dimethylamino)ethyl)(methyl)amino)-4-methoxyphenyl)acrylamide]
EGFR d746-750/T790M
  IC50: 0.6 nM
[1]
  IC50: 288 nM
EGFR wild type
  IC50: 5.3 nM
EGFR T790M/L858R
  IC50: 0.5 nM
A431 cells EGFR WT
  IC50: 1570 nM
  A431:NCI-H1975 (ratio): 5.5

## C=CC(=O)Nc1cc(Nc2nccc(-c3c4n(c5ccccc35)CCC4)n2)c(OC)cc1CN1CCOCC1 [Embodiment 9, N-(5-((4-(2,3-Dihydro-1H-pyrrolo[1,2-a]indol-9-yl)pyrimidin-2-yl)amino)-4-methoxy-2-(morpholinomethyl)phenyl)acrylamide]
EGFR d746-750/T790M
  IC50: 0.51 nM
[1]
  IC50: 111 nM
EGFR wild type
  IC50: 6.28 nM
EGFR T790M/L858R
  IC50: 0.75 nM
A431 cells EGFR WT
  IC50: 1440 nM
  A431:NCI-H1975 (ratio): 13.0

## C=CC(=O)Nc1cc(Nc2nccc(-c3c4n(c5ccccc35)CCOC4)n2)c(OC)cc1N(CC)CCN(C)C [Embodiment 19, N-(5-((4-(3,4-Dihydro-1H-[1,4]oxazino[4,3-a]indol-10-yl)pyrimidin-2-yl)amino)-2-((2-(dimethylamino)ethyl)(ethyl)amino)-4-methoxyphenyl)acrylamide]
EGFR d746-750/T790M
  IC50: 0.26 nM
[1]
  IC50: 29 nM
EGFR wild type
  IC50: 2.7 nM
EGFR T790M/L858R
  IC50: 0.3 nM
A431 cells EGFR WT
  IC50: 965 nM
  A431:NCI-H1975 (ratio): 33

## C=CC(=O)Nc1cc(Nc2nccc(-c3c4n(c5ccccc35)CCC4)n2)c(OC)cc1CCCN(C)C [Embodiment 10]
EGFR d746-750/T790M
  IC50: 1.89 nM
[1]
  IC50: 283 nM
EGFR wild type
  IC50: 27.5 nM
EGFR T790M/L858R
  IC50: 2.19 nM
A431 cells EGFR WT
  IC50: 2260 nM
  A431:NCI-H1975 (ratio): 8.0

## C=CC(=O)Nc1cc(Nc2nccc(-c3c4n(c5ccccc35)CCC4=O)n2)c(OC)cc1N(C)CCN(C)C [Embodiment 12, N-(2-((2-(Dimethylamino)ethyl)(methyl)amino)-4-methoxy-5-((4-(1-oxo-2,3-dihydro-1H-pyrrolo[1,2-a]indol-9-yl)pyrimidin-2-yl)amino)phenyl)acrylamide]
EGFR d746-750/T790M
  IC50: 0.31 nM
[1]
  IC50: 4.8 nM
EGFR wild type
  IC50: 0.43 nM
EGFR T790M/L858R
  IC50: 0.33 nM
A431 cells EGFR WT
  IC50: 369 nM
  A431:NCI-H1975 (ratio): 76.9

## C=CC(=O)Nc1cc(Nc2nccc(-c3c4n(c5ccccc35)CCOC4)n2)c(OC)cc1N(CC)CCNCC [Embodiment 21, N-(5-((4-(3,4-Dihydro-1H-[1,4]oxazino[4,3-a]indol-10-yl)pyrimidin-2-yl)amino)-2-(ethyl(2-(ethylamino)ethyl)amino)-4-methoxyphenyl)acrylamide]
[1]
  IC50: 50 nM
A431 cells EGFR WT
  IC50: 1440 nM
  A431:NCI-H1975 (ratio): 29

## C=CC(=O)Nc1cc(Nc2nccc(-c3c4n(c5ccccc35)CCOC4)n2)c(OC)cc1N(CC)CCN(C)CC [Embodiment 22, N-(5-((4-(3,4-Dihydro-1H-[1,4]oxazino[4,3-a]indol-10-yl)pyrimidin-2-yl)amino)-2-(ethyl(2-(ethyl(methyl)amino)ethyl)amino)-4-methoxyphenyl)acrylamide]
[1]
  IC50: 50.4 nM
A431 cells EGFR WT
  IC50: 1330 nM
  A431:NCI-H1975 (ratio): 26
